Data on three compounds can be found in patent publication US8426434B2, “Crystalline form of 4-[[4-[[4-(2-Cyanoethenyl)-2,6-dimethylphenyl]-amino]-2-pyrimidinyl]amino]benzonitrile” (Tibotec Pharmaceuticals Ltd., priority 2007, dated 2013).

In brackets after ≈: the same amount, converted by molar mass. Several values for one entry are separate records, joined by “and”; a condition that tells them apart may be missing. Equal entries are not always repeated. Where two headings read alike, the source gives them in different places.

Data set [1] can be described thus: Intrinsic dissolution (USP dissolution apparatus 2, tablet in PTFE holder, UV at 266 nm). It counts as physicochemical. The settings on record: for average intrinsic dissolution rate / slope, average: average of samples 1-6, 0.01N HCl/methanol 1:1, 37° C.; for average intrinsic dissolution rate / slope, average / slope / intrinsic dissolution rate (IDR): 150 rpm; for slope, average: 0 to 60 min; for slope / intrinsic dissolution rate (IDR): single samples, 500 ml 0.01N HCl/methanol 1:1, 37° C.; for slope: slope calculated from 0 to 60 min; for intrinsic dissolution rate (IDR): tablet surface 0.5026 cm^2. As for the experimental part: A Hanson Research SR6™ dissolution testing station equipped with a USP dissolution apparatus 2 as paddle and a poly(tetrafluoroethylene (PTFE) tablet holder was used. UV spectrometry was used to determine the concentration of TMC278 in solution. The UV analysis was carried out on an Agilent 8453™ spectrophotometer using a 2 ml cuvet. A single wavelength measurement at 266 nm was recorded with single component analysis (SCA), a single component measurement.
About 125 mg of the compound was weighed into a mould with a diameter of 0.8 cm. A tablet was made with a Speca press imposing a pressure of 1 ton for tabletting. The surface area of the tablet was 0.5026 cm^2. The tablet was adhered to the PTFE tablet holder.
21.8 mg of TMC278 was weighed into a volumetric flask of 25 ml. The product was dissolved in a 1:1.5 tetrahydrofuran/methanol mixture. A 1 ml aliquot was transferred into a 200 ml volumetric flask and diluted to the mark using 0.01N HCl. The concentration of the reference solution was […].
The tablet holders with the tablets were placed in a USP2 dissolution bath. The vessels contained 500 ml 0.01N HCl/methanol 1:1 and were thermostatically controlled at 37° C. The paddles were used with a rotation speed of 150 rpm (rounds per minute). A sample was withdrawn each 10 minutes and the concentration was determined with UV spectrometry. The slope was calculated on the measuring points between 0 and 60 minutes. The slope was expressed as mg %/minute. The intrinsic dissolution rate (IDR), expressed as mg/(cm^2×min), was calculated.

Data set [2] can be described thus: Solubility in buffer pH4, buffer pH2 and 0.01N HCl. It counts as physicochemical.
Data set [3] concerns drug and multidrug resistant HIV strains. The settings on record: in words; strains resistant to NNRTIs such as efavirenz, nevirapine, delavirdine; cited from earlier work.
The subject of a further data set is wild type HIV. To be noted: in words; described in WO 03/16306; cited from earlier work.

On to `Cc1cc(/C=C/C#N)cc(C)c1Nc1ccnc(Nc2ccc(C#N)cc2)n1` [TMC278 polymorph I, (E) 4-[[4-[[4-(2-cyanoethenyl)-2,6-dimethylphenyl]amino]-2-pyrimidinyl]amino]benzonitrile], for which, in data set [1], the “average intrinsic dissolution rate” value is reported as 0.3362 mg/(cm^2 × min); the “slope, average” value is given as 0.0338 mg %/minute; the slope is 0.0358 mg %/minute and 0.0353 mg %/minute and 0.0309 mg %/minute and 0.0347 mg %/minute and 0.0343 mg %/minute and 0.0319 mg %/minute; the “intrinsic dissolution rate (IDR)” value is 0.3559 mg/(cm^2 × min) and 0.3508 mg/(cm^2 × min) and 0.3074 mg/(cm^2 × min) and 0.3447 mg/(cm^2 × min) and 0.3417 mg/(cm^2 × min) and 0.3169 mg/(cm^2 × min). In addition, the “intrinsic dissolution rates, compared to Polymorph II” value in data set [1] (in words) is given as “increased intrinsic dissolution rates”. Besides, the Solubility in data set [2] (0.01N HCl, pH 2.1) is 4.1 mg/100 ml. The compound further displayed a Solubility in data set [2] (Buffer pH4, pH 4.0) of 0.07 mg/100 ml. For the same compound, the Solubility in data set [2] (buffer pH2, pH 2.1, aqueous buffer, Buffer pH2, pH 2.1, read-out: Solubility) was found to be 6.4 µg/mL (≈ 17.5 µM). In addition, the “solubility at lower pH, compared to Polymorph II” value in data set [2] (lower pH, in words) is reported as “increased solubility at lower pH”.
In the case of `Cc1cc(/C=C/C#N)cc(C)c1Nc1ccnc(Nc2ccc(C#N)cc2)n1` [TMC278 polymorph II, 4-[[4-[[4-(2-cyanoethenyl)-2,6-dimethylphenyl]-amino]-2-pyrimidinyl]-amino-]-benzonitrile, reference compound], in data set [1], the “average intrinsic dissolution rate” value is 0.2886 mg/(cm^2 × min); the “slope, average” value turned out to be 0.0290 mg %/minute; the slope is 0.0283 mg %/minute and 0.0281 mg %/minute and 0.0290 mg %/minute and 0.0305 mg %/minute and 0.0288 mg %/minute and 0.0294 mg %/minute; the “intrinsic dissolution rate (IDR)” value is 0.2819 mg/(cm^2 × min) and 0.2795 mg/(cm^2 × min) and 0.2886 mg/(cm^2 × min) and 0.3035 mg/(cm^2 × min) and 0.2861 mg/(cm^2 × min) and 0.2921 mg/(cm^2 × min). Besides, in data set [1] (listed as polymorph II), the “average intrinsic dissolution rate” value is 0.2886 mg/(cm^2 × min). In data set [2] (0.01N HCl, pH 2.1), the Solubility is recorded as 1.9 mg/100 ml. In data set [2] (Buffer pH4, pH 4.0), this compound came in with a Solubility of 0.03 mg/100 ml.
On to `Cc1cc(/C=C/C#N)cc(C)c1Nc1ccnc(Nc2ccc(C#N)cc2)n1` [TMC278, 4-[[4-[[4-(2-cyanoethenyl)-2,6-dimethylphenyl]-amino]-2-pyrimidinyl]-amino-]-benzonitrile], for which the “activity against drug and multidrug resistant HIV strains” value in data set [3] was “shows activity”. Further, the solubility in water result in data set [2] (water, in words) was “relatively low solubility in water”. In addition, the “activity against wild type HIV” value in the data set with wild type HIV is reported as “pronounced activity”.
